The text below walks through data of US20140187638A1, “PHENYLBUTYRATE IN RECTAL FORM FOR THE TREATMENT OF A MOTOR NEURON DISEASE OR A METABOLIC DISEASE” (GMP-ORPHAN, priority 2011, published 2014).

One series relates to SMA. The settings on record: in vivo; cited from earlier work.
The test system of the next series is patients with SMA. The settings on record: oral, 500 mg/kg/day, intermittent regimen, 13 weeks, 107 patients; cited from earlier work.
The conditions of series [1]: after per os ingestion; cited from earlier work.
In a further series the test system is juvenile minipigs. As to the kind of experiment: 13-week repeat-dose toxicity study, rectal administration. The format is in vivo. Particulars: 13 weeks, 5 doses per day, 550 to 13,750 mg/kg. How it is done:
The aim of this study was to test the toxicity of repeated administrations of sodium phenylbutyrate (NaPB) by the intended human route in juvenile minipigs (13-week study, total dose divided into 5 doses per day). Minipig is a model of interest for studies of local tolerance due to similarities between properties of the skin of pigs of the one of humans.
A 13-week repeat-dose toxicity study was conducted in juvenile minipigs using the rectal administration route of sodium phenylbutyrate (NaPB). One group was treated […] at the pharmacological dose of NaPB. One group received oral NaPB (total dose divided into 5 doses per day) for comparison.
The study included safety pharmacology evaluation, toxicokinetic (TK) determination, as well as a four-week recovery period.
Earliest dosing was started at 7 days of age. Oral gavage (5 times daily at 3-4 hour intervals) and rectal administration (5 times daily at 3-4 hour intervals) were performed during 13 weeks. A recovery period of 28 days was performed.
The recovery animals were housed for additional 28 days after dosing. The piglets were weighed twice weekly throughout the study. Growth measurements were performed twice weekly. Ophthalmology, electrocardiography were done the last day of treatment. […] The parameters measured met standard guidelines. […]

Series [2] concerns patients with SMA type II. The settings on record: oral, 9 weeks, cited from earlier work.

Structures are written as SMILES.

With `CCCC(CCC)C(=O)O` [Valproic acid, valproic acid], in the series on SMA, the efficacy entry was “do not seem to have given significant results”.

Consider `NC(=O)NO` [hydroxyurea], for which the efficacy entry in the series with SMA is given as “do not seem to have given significant results”.

As for `O=C([O-])CCCc1ccccc1.[Na+]` [4-phenylbutyrate, sodium 4-phenylbutyrate], in the series with patients with SMA, the efficacy result was “not shown to be effective” and the tolerability entry is given as “well tolerated”. For the same compound, the half-life (as a rule, how long it takes for the measured level to halve) in series [1] is 46.2 min. In addition, in the series on juvenile minipigs, the toxicity entry is on record as “No toxicity was observed”. For the same compound, the “scores on a motor scale” value in series [2] (500 mg/kg/day in five doses, 7 days on and 7 days off, 10 patients) was “significant increase”. Also, the side effects entry in series [2] (500 mg/kg/day) is recorded as “no major side effect”.
